Experimental data published in patent US20230085307A1, “PYRIDAZINONE COMPOUND AND HERBICIDE” (NISSAN CHEMICAL CORPORATION, priority 2019, published 2023).

Key:
Chinese sprangletop = test: Test Example 3: herbicidal effect by foliage application, Wagner pot (Table 18, symbol D); type: in vivo, chinese sprangletop (Leptochloa chinensis); conditions: amount of applied herbicide 320 g/ha
How it was run: (§1)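 Plants were sown in alluvial soil held under 0.1–0.5 cm standing water and grown 14 days in a greenhouse at 25–30 °C. An emulsifiable formulation, water-diluted to the set dose, was then sprayed onto the foliage, and effects were scored three weeks later using previously defined criteria.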

Japanese bulrush = test: Test Example 1: herbicidal activity, application before weed generation under submerged conditions (Table 16, symbol B); type: in vivo, Japanese bulrush (Schoenoplectus juncoides); conditions: for Herbicidal effect, B: Japanese bulrush: amount of applied herbicide 320 g/ha
How it was run: (§2)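 Emulsion formulation, water-diluted to set dose, was put onto the flooded surface (4 cm depth, alluvial soil) the same day weeds were sown and 2.5-leaf rice transplanted. After 3 weeks at 25-30 °C under glass, each species was rated 0 (≤5% kill) to 5 (≥90% kill).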

late watergrass = test: Test Example 1: herbicidal activity, application before weed generation under submerged conditions (Table 16, symbol A); type: in vivo, late watergrass (Echinochloa oryzicola); conditions: for Herbicidal effect, A: late watergrass: amount of applied herbicide 320 g/ha
How it was run: as §2

persian speedwell = test: Test Example 5: herbicidal effect by foliage application, plastic box (Table 20, symbol R); type: in vivo, Persian speedwell (Veronica persica); conditions: foliage application; for R: persian speedwell, herbicidal effect grade: 320 g/ha, three weeks after application
How it was run: (§3)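 Plants sown in sterilized diluvial soil and grown 14 days in a greenhouse at 25° C to 30° C, then sprayed on the foliage with the compound's emulsion diluted in water to a predetermined herbicide amount. Injury to weeds and crops scored three weeks after application on a visual rating scale.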

windgrass = test: Test Example 5: herbicidal effect by foliage application, plastic box (Table 20, symbol L); type: in vivo, windgrass (Apera spica-venti); conditions: foliage application; for L: windgrass, herbicidal effect grade: 320 g/ha, three weeks after application
How it was run: as §3

chickweed = test: Test Example 5: herbicidal effect by foliage application, plastic box (Table 20, symbol P); type: in vivo, common chickweed (Stellaria media); conditions: foliage application; for P: chickweed, herbicidal effect grade: 320 g/ha, three weeks after application
How it was run: as §3

blackgrass = test: Test Example 5: herbicidal effect by foliage application, plastic box (Table 20, symbol J); type: in vivo, blackgrass (Alopecurus myosuroides); conditions: foliage application; for J: blackgrass, herbicidal effect grade: 320 g/ha, three weeks after application
How it was run: as §3

wild oat = test: Test Example 5: herbicidal effect by foliage application, plastic box (Table 20, symbol I); type: in vivo, wild oat (Avena fatua); conditions: foliage application; for I: wild oat, herbicidal effect grade: 320 g/ha, three weeks after application
How it was run: as §3

redroot pigweed = test: Test Example 5: herbicidal effect by foliage application, plastic box (Table 20, symbol N); type: in vivo, redroot pigweed (Amaranthus retroflexus); conditions: foliage application; for N: redroot pigweed, herbicidal effect grade: 320 g/ha, three weeks after application
How it was run: as §3

southern crabgrass = test: Test Example 5: herbicidal effect by foliage application, plastic box (Table 20, symbol F); type: in vivo, southern crabgrass (Digitaria ciliaris); conditions: foliage application; for F: southern crabgrass, herbicidal effect grade: 320 g/ha, three weeks after application
How it was run: as §3

Italian ryegrass = test: Test Example 5: herbicidal effect by foliage application, plastic box (Table 20, symbol K); type: in vivo, Italian ryegrass (Lolium multiflorum); conditions: foliage application; for K: Italian ryegrass, herbicidal effect grade: 320 g/ha, three weeks after application
How it was run: as §3

barnyard grass [1] = test: Test Example 5: herbicidal effect by foliage application, plastic box (Table 20, symbol H); type: in vivo, barnyard grass (Echinochloa crus-galli); conditions: foliage application; for H: barnyard grass, herbicidal effect grade: 320 g/ha, three weeks after application
How it was run: as §3

green foxtail = test: Test Example 5: herbicidal effect by foliage application, plastic box (Table 20, symbol G); type: in vivo, green foxtail (Setaria viridis); conditions: foliage application; for G: green foxtail, herbicidal effect grade: 320 g/ha, three weeks after application
How it was run: as §3

velvetleaf = test: Test Example 5: herbicidal effect by foliage application, plastic box (Table 20, symbol M); type: in vivo, velvetleaf (Abutilon theophrasti); conditions: foliage application; for M: velvetleaf, herbicidal effect grade: 320 g/ha, three weeks after application
How it was run: as §3

rice flat sedge = test: Test Example 3: herbicidal effect by foliage application, Wagner pot (Table 18, symbol E); type: in vivo, rice flat sedge (Cyperus iria); conditions: amount of applied herbicide 320 g/ha
How it was run: as §1

lambsquarters = test: Test Example 5: herbicidal effect by foliage application, plastic box (Table 20, symbol O); type: in vivo, lambsquarters (Chenopodium album); conditions: foliage application; for O: lambsquarters, herbicidal effect grade: 320 g/ha, three weeks after application
How it was run: as §3

barnyard grass [2] = test: Test Example 3: herbicidal effect by foliage application, Wagner pot (Table 18, symbol H); type: in vivo, barnyard grass (Echinochloa crus-galli); conditions: amount of applied herbicide 320 g/ha
How it was run: as §1

oval-leafed pondweed = test: Test Example 1: herbicidal activity, application before weed generation under submerged conditions (Table 16, symbol C); type: in vivo, oval-leafed pondweed (Monochoria vaginalis); conditions: for Herbicidal effect, C: oval-leafed pondweed: amount of applied herbicide 320 g/ha
How it was run: as §2

[3] = AAH 320 g/ha, evaluated three weeks after application

SMILES	herbicidal effect on D: Chinese sprangletop (Chinese sprangletop)	Herbicidal effect, B: Japanese bulrush (Japanese bulrush)	Herbicidal effect, A: late watergrass (late watergrass)	R: persian speedwell, herbicidal effect grade (persian speedwell)	L: windgrass, herbicidal effect grade (windgrass)	P: chickweed, herbicidal effect grade (chickweed)	J: blackgrass, herbicidal effect grade (blackgrass)	I: wild oat, herbicidal effect grade (wild oat)	N: redroot pigweed, herbicidal effect grade (redroot pigweed)	F: southern crabgrass, herbicidal effect grade (southern crabgrass)	K: Italian ryegrass, herbicidal effect grade (Italian ryegrass)	H: barnyard grass, herbicidal effect grade (barnyard grass [1])	G: green foxtail, herbicidal effect grade (green foxtail)	M: velvetleaf, herbicidal effect grade (velvetleaf)	herbicidal effect on E: rice flat sedge (rice flat sedge)	O: lambsquarters, herbicidal effect grade (lambsquarters)	herbicidal effect on H: barnyard grass (barnyard grass [2])	Herbicidal effect, C: oval-leafed pondweed (oval-leafed pondweed)	other results
COc1ccccc1-c1sc2cc(F)ccc2c1-c1c(OC(=O)SC(C)(C)C)c(C)nn(C)c1=O [3-026]	0 (Herbicidal rate of 5% or less (almost no effect))	0 (Herbicidal rate of 5% or less (almost no effect))	2 (Herbicidal rate of 20% or more and less than 40%)	0 (Herbicidal rate of 5% or less (almost no effect))	0 (Herbicidal rate of 5% or less (almost no effect))	0 (Herbicidal rate of 5% or less (almost no effect))	0 (Herbicidal rate of 5% or less (almost no effect))	0 (Herbicidal rate of 5% or less (almost no effect))	5 (Herbicidal rate of 90% or more (almost completely withered))	0 (Herbicidal rate of 5% or less (almost no effect))	0 (Herbicidal rate of 5% or less (almost no effect))	0 (Herbicidal rate of 5% or less (almost no effect))	0 (Herbicidal rate of 5% or less (almost no effect))	0 (Herbicidal rate of 5% or less (almost no effect))	2 (Herbicidal rate of 20% or more and less than 40%)	1 (Herbicidal rate of 5% or more and less than 20%)	4 (Herbicidal rate of 70% or more and less than 90%)	3 (Herbicidal rate of 40% or more and less than 70%)	
COc1ccccc1-c1sc2cc(F)ccc2c1-c1c(OCC(=O)c2ccccc2)c(C)nn(C)c1=O [3-030]	2 (Herbicidal rate of 20% or more and less than 40%)	0 (Herbicidal rate of 5% or less (almost no effect))	2 (Herbicidal rate of 20% or more and less than 40%)	0 (Herbicidal rate of 5% or less (almost no effect))	0 (Herbicidal rate of 5% or less (almost no effect))	3 (Herbicidal rate of 40% or more and less than 70%)	3 (Herbicidal rate of 40% or more and less than 70%)	0 (Herbicidal rate of 5% or less (almost no effect))	3 (Herbicidal rate of 40% or more and less than 70%)	0 (Herbicidal rate of 5% or less (almost no effect))	0 (Herbicidal rate of 5% or less (almost no effect))	0 (Herbicidal rate of 5% or less (almost no effect))	1 (Herbicidal rate of 5% or more and less than 20%)	3 (Herbicidal rate of 40% or more and less than 70%)	0 (Herbicidal rate of 5% or less (almost no effect))	1 (Herbicidal rate of 5% or more and less than 20%)	4 (Herbicidal rate of 70% or more and less than 90%)	3 (Herbicidal rate of 40% or more and less than 70%)	
Cc1nn(C)c(=O)c(-c2c(-c3ccc(OC(F)F)cc3)sc3ccc(F)cc23)c1OCC(F)(F)F [2-302]	0 (Herbicidal rate of 5% or less (almost no effect))														3 (Herbicidal rate of 40% or more and less than 70%)		3 (Herbicidal rate of 40% or more and less than 70%)		Herbicidal effect on B: Japanese bulrush (grade 0-5) (Japanese bulrush; 320 g/ha applied herbicide): 0 (Herbicidal rate of 5% or less (almost no effect)); Herbicidal effect on A: late watergrass (grade 0-5) (late watergrass; 320 g/ha applied herbicide): 3 (Herbicidal rate of 40% or more and less than 70%); R: persian speedwell, herbicidal effect (criteria 0-5) (persian speedwell; [3]): 1 (Herbicidal rate of 5% or more and less than 20%); L: windgrass, herbicidal effect (criteria 0-5) (windgrass; [3]): 0 (Herbicidal rate of 5% or less (almost no effect)); P: chickweed, herbicidal effect (criteria 0-5) (chickweed; [3]): 4 (Herbicidal rate of 70% or more and less than 90%); J: blackgrass, herbicidal effect (criteria 0-5) (blackgrass; [3]): 0 (Herbicidal rate of 5% or less (almost no effect)); I: wild oat, herbicidal effect (criteria 0-5) (wild oat; [3]): 0 (Herbicidal rate of 5% or less (almost no effect)); N: redroot pigweed, herbicidal effect (criteria 0-5) (redroot pigweed; [3]): 3 (Herbicidal rate of 40% or more and less than 70%); F: southern crabgrass, herbicidal effect (criteria 0-5) (southern crabgrass; [3]): 0 (Herbicidal rate of 5% or less (almost no effect)); K: Italian ryegrass, herbicidal effect (criteria 0-5) (Italian ryegrass; [3]): 0 (Herbicidal rate of 5% or less (almost no effect)); H: barnyard grass, herbicidal effect (criteria 0-5) (barnyard grass [1]; [3]): 0 (Herbicidal rate of 5% or less (almost no effect)); G: green foxtail, herbicidal effect (criteria 0-5) (green foxtail; [3]): 0 (Herbicidal rate of 5% or less (almost no effect)); M: velvetleaf, herbicidal effect (criteria 0-5) (velvetleaf; [3]): 0 (Herbicidal rate of 5% or less (almost no effect)); O: lambsquarters, herbicidal effect (criteria 0-5) (lambsquarters; [3]): 1 (Herbicidal rate of 5% or more and less than 20%); Herbicidal effect on C: oval-leafed pondweed (grade 0-5) (oval-leafed pondweed; 320 g/ha applied herbicide): 0 (Herbicidal rate of 5% or less (almost no effect))
